Measured values published in US20090105220A1, “PROCESS FOR THE PREPARATION OF NONPEPTIDE SUBSTITUTED SPIROBENZOAZEPINE DERIVATIVES” (priority 2003, published 2009).
Structures can show the parent of a compound that is named as a salt.

Row | melting point | Compound
1 | 263 to 265 °C | O=C(O)C1=C[C@@]2(CC1)CCN(C(=O)c1ccc(NC(=O)c3ccccc3-c3ccccc3)cc1)c1ccccc1C2
2 | 180 to 185 °C (dec.) | CN(C)CCNC(=O)C1=C[C@@]2(CC1)CCN(C(=O)c1ccc(NC(=O)c3ccccc3-c3ccccc3)cc1)c1ccccc1C2.O=C(O)c1ccccc1
3 | 148 to 158 °C (dec.) | CN(C)CCNC(=O)C1=C[C@@]2(CC1)CCN(C(=O)c1ccc(NC(=O)c3ccccc3F)cc1)c1ccccc1C2 (as salt: phosphate)
